{"source": "EPA's ToxValDB 9.5 (doi:10.2903/j.efsa.2017.4700)", "key": {"[1]": {"settings": "reproduction developmental; clinical signs"}, "[2]": {"test_system": "Apis mellifera", "settings": "acute, mortality"}, "[3]": {"test_system": "Canidae", "settings": "Dog Other, hematological"}, "[4]": {"test_system": "Colinus virginianus"}, "[5]": {"test_system": "Daphnia magna", "settings": "chronic/long-term; duration: 21 days; growth"}, "[6]": {"test_system": "Oncorhynchus mykiss", "settings": "acute; mortality"}, "[7]": {"test_system": "Pimephales promelas", "settings": "chronic/long-term; other"}, "[8]": {"test_system": "Rattus norvegicus"}, "[9]": {"test_system": "Tagia sp.", "settings": "chronic/long-term; reproduction"}, "[10]": {"test_system": "Typhlodromus pyri", "experiment": "LR50; higher = less toxic", "settings": "not reported; mortality"}}, "note": "Values joined by “and” are separate entries in the source; they are usually repeats but may differ in a detail not shown here. Equal entries are not always repeated."}
{"smiles": "CN(C)C(=S)SSC(=S)N(C)C", "note": "[Bis(dimethylaminothiocarbonyl) disulfide]", "values": [{"measurement": "NOAEL", "setting": "[1]", "result": 1.6, "unit": "mg/kg-day"}, {"measurement": "LD50", "setting": "[2]; dermal", "result": "> 100", "unit": "µg/piece"}, {"measurement": "LD50", "setting": "[2]; oral, unspecified", "result": "> 107", "unit": "µg/piece"}, {"measurement": "NOAEL", "setting": "[3]; chronic, duration: 1 years", "result": 0.84, "unit": "mg/kg-day"}, {"measurement": "NOAEL", "setting": "[3]; subchronic, duration: 90 days", "result": 2, "unit": "mg/kg-day"}, {"measurement": "LD50", "setting": "[4]; acute, oral, mortality", "result": 930, "unit": "mg/kg-day"}, {"measurement": "NOEC", "setting": "[4]; reproduction developmental", "result": 37.5, "unit": "mg/kg-day"}, {"measurement": "NOEC", "setting": "[5]", "result": 20, "unit": "µg/L"}, {"measurement": "LC50", "setting": "[6]", "result": 0.171, "unit": "µg/mL"}, {"measurement": "NOEC", "setting": "[7]", "result": 1.1, "unit": "µg/L"}, {"measurement": "LD50", "setting": "[8]; acute, oral, mortality", "result": 1800, "unit": "mg/kg-day"}, {"measurement": "NOAEL", "setting": "[8]; chronic", "result": 1.6, "unit": "mg/kg-day"}, {"measurement": "NOAEL", "setting": "[8]; chronic, duration: 2 years, body weight", "result": 1.5, "unit": "mg/kg-day"}, {"measurement": "NOAEL", "setting": "[8]; reproduction developmental, body weight", "result": "< 7.5 mg/kg-day and 3 mg/kg-day"}, {"measurement": "NOEC", "setting": "[9]", "result": 8.45, "unit": "mg/kg"}, {"measurement": "LR50", "setting": "[10]", "result": 511, "unit": "g/ha"}]}
